In assay [1] the target is Sodium-dependent serotonin transporter (Homo sapiens, UniProt P31645).
In assay [2] the target is Sodium-dependent noradrenaline transporter (Homo sapiens, UniProt P23975).
In assay [3] the target is Sodium-dependent dopamine transporter (Homo sapiens, UniProt Q01959).

Drawing on BindingDB's records for doi:10.1124/jpet.104.068098 (University of Kentucky, 2004), this text covers Ki for three compounds.

SMILES strings stand for the structures. Bounds are passed on as bounds.

Sodium-dependent dopamine transporter, sequence (Q01959 whole entry): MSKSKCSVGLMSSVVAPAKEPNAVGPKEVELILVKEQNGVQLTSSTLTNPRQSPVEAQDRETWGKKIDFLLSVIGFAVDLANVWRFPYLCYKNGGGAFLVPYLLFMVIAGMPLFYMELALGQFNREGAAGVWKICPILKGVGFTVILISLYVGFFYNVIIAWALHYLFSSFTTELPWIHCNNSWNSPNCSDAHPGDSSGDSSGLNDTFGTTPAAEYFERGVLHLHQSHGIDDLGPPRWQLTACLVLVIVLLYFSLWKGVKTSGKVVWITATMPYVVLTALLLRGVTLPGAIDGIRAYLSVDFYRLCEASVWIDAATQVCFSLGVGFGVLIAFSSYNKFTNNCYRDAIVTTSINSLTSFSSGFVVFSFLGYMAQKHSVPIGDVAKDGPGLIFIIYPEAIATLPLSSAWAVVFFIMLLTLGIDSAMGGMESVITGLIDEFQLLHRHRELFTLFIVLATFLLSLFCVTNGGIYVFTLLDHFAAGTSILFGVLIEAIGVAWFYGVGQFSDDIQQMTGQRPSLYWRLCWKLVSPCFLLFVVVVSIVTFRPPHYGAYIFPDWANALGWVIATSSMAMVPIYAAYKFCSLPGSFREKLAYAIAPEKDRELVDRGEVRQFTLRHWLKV
Sodium-dependent noradrenaline transporter, sequence (P23975 whole entry): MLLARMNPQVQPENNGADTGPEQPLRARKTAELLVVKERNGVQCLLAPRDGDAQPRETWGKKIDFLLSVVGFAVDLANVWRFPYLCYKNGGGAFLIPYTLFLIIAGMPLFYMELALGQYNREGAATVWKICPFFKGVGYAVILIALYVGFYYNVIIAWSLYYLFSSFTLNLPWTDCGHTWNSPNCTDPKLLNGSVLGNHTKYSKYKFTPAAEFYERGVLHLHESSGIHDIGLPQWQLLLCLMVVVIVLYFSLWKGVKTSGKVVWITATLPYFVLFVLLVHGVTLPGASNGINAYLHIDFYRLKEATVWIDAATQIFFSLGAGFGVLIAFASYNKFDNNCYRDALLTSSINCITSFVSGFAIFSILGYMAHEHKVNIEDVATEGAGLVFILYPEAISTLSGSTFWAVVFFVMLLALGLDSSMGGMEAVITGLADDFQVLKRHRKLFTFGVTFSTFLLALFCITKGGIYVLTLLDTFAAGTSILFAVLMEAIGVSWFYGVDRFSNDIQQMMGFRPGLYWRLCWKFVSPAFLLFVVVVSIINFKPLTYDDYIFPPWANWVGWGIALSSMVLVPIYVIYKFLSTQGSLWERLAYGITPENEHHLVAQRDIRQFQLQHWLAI
Sodium-dependent serotonin transporter, sequence (P31645 whole entry): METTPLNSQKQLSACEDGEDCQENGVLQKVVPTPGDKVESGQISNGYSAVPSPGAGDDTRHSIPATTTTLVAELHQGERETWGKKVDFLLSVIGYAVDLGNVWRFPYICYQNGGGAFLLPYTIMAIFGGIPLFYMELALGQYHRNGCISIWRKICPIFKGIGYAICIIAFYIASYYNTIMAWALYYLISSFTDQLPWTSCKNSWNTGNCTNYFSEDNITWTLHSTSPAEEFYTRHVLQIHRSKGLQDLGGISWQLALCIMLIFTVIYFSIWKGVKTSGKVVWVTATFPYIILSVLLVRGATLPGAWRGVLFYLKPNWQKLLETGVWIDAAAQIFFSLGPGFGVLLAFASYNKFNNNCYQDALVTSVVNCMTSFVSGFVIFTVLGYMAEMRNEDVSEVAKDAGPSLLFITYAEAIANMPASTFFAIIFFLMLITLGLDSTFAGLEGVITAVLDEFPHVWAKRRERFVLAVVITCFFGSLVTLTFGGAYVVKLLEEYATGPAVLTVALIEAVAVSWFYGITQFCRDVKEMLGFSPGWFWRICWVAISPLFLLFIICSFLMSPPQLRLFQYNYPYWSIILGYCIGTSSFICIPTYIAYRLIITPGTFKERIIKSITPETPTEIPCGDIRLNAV

For `CN1[C@@H](CCc2ccccc2)CCC[C@H]1CCc1ccccc1`, the Ki in assay [1] stood at 530 nM; in assay [2] it was 1800 nM; in assay [3], 97 nM.
As to `CN1[C@H](/C=C/c2ccccc2)CCC[C@@H]1/C=C/c1ccccc1`, the results for the Ki in assay [1], in assay [2] and in assay [3] were 1890 nM, 277 nM and 43 nM, respectively.
As to `CN1[C@@H](C[C@@H](O)c2ccccc2)CCC[C@H]1CC(=O)c1ccccc1` [Lobeline], the Ki in assay [1] was greater than 10000 nM; in assay [2], 1870 nM; in assay [3] it was 5400 nM.

The term Ki denotes the equilibrium dissociation constant of an inhibitor or competing ligand from its target. Higher therefore signals lower affinity.
